Assay in all cases: NCI anticancer screen, dose series, 48 h
In assay [1] the test system is MOLT-4 leukemia.
For assay [2], the system named is NCI-H226 lung.
In assay [3] the test system is HOP-92 NSCLC.
The subject of assay [4] is HCC-2998 colon.
Assay [5] has as its system SF-539 CNS.
The test system of assay [6] is NCI-H522 lung.
Assay [7] relates to UACC-62 melanoma.
The subject of assay [8] is COLO 205 colon.
In assay [9] the test system is TK-10 renal.
The subject of assay [10] is KM12 colon.

In PubChem BioAssay (NCI) one finds GI50 and TGI data, which are given here for 19 compounds.

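96-well plates; 48 h exposure; 5 concentrations. Endpoints by linear interpolation between flanking doses. Not reached: highest tested concentration assigned. GI50 = concentration required for 50% inhibition of growth. TGI marks complete inhibition of growth.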 Some results are limits rather than exact numbers.

In the case of `COC(=O)c1ccc2c(c1)[n+](=O)c(C(C)=O)c(C(F)(F)F)n2[O-]`, the GI50 in assay [1] was 2.95 µM; in [2] it was 1.95 µM; in [3], 1.48 µM; in assay [4], 1.78 µM; in [5], 1.85 µM; in [6] it was 1.66 µM. The GI50 in assay [7] is 1.71 µM; in assay [8], 1.95 µM; in assay [9] it was 2.77 µM; in assay [10], 1.76 µM. Besides, the TGI in [1] is 17.6 µM; in assay [2] it was 3.65 µM; in assay [3], 3.14 µM; in [4] it was 3.18 µM; in assay [5], 3.36 µM; in [6], 3.28 µM. In addition, the TGI amounted to 3.14 µM in [7], 3.95 µM in assay [8], 6.05 µM in assay [9] and 3.19 µM in assay [10].

Consider `COC(=O)C(=O)C(C(=O)C(=O)Nc1ccc(Cl)cc1Cl)c1nc2ccc(Cl)cc2[nH]c1=O` (centres undefined), for which the TGI in assay [1], in assay [2], in [3], in assay [4], in assay [5] and in assay [6] was over 100 µM each time. The TGI in assay [7], in [8], in assay [9] and in assay [10] was over 100 µM each time.

As to `COc1cc(C2CC(c3ccc(C)cc3)=NN2C(C)=O)ccc1Oc1ccnc2cc(Cl)ccc12` (centres undefined), the GI50 in assay [1] was over 100 µM; in assay [2], 5.38 µM; in assay [3], 30.1 µM; in assay [4] it was over 100 µM; in assay [5] it was 11.7 µM; in assay [6], over 100 µM. Moreover, the GI50 in [7], in [8] and in assay [10] was over 100 µM throughout. For the same compound, the TGI in assay [1], in [2], in assay [3], in assay [4], in assay [5] and in [6] was over 100 µM in each case. For the same compound, the TGI in assay [7], in assay [8] and in [10] was over 100 µM each time.

For `COc1ccc(NC(=O)CC(=O)n2nc(-c3ccccc3)c(N=Nc3ccc(C)cc3)c2-c2ccccc2)cc1`, the TGI in [1] was over 100 µM; in assay [2], 58.3 µM; in assay [3], 40.6 µM; in assay [4], over 100 µM; in [5] it was 44 µM; in assay [6], 48.3 µM. The TGI in [7] was 49.5 µM; in [8] it was over 100 µM; in [9], 55.1 µM; in assay [10] it was over 100 µM.

With `COc1ccc(CNCCN2C(=O)c3ccc4c5c(ccc(c35)C2=O)C(=O)N(CCNCc2ccc(OC)cc2)C4=O)cc1`, the GI50 is 0.282 µM in assay [1]; 0.637 µM in [2]; 0.788 µM in assay [3]; 0.304 µM in [4]; 0.274 µM in assay [5]; 0.413 µM in assay [6]. The GI50 in [7] is 0.392 µM; in [8], 0.137 µM; in assay [9], 0.201 µM; in assay [10] it was 0.2 µM. The TGI in assay [1] turned out to be 0.92 µM; in [2], 2.28 µM; in [3] it was 2.68 µM; in [4] it was 1.05 µM; in assay [5], 0.872 µM; in assay [6] it was 1.92 µM. In addition, the TGI in assay [7] is 1.5 µM; in assay [8] it was 0.281 µM; in [9], 0.754 µM; in assay [10], 0.623 µM.

With `COC(=O)c1nc(N)[nH]c(=O)c1-c1ccc(Cl)cc1`, the TGI in assay [1], in [2], in assay [3], in assay [4], in assay [5] and in assay [6] was over 100 µM each time. The TGI in [7], in assay [8], in assay [9] and in assay [10] was over 100 µM in each case.

Take `COc1cc(C2C3=C(COC3=O)N(CCO)c3cc4c(cc32)OCCO4)cc(OC)c1O` (centres undefined): the GI50 is 3.68 µM in assay [1]; over 19.5 µM in [2]; over 50 µM in assay [3]; 2.04 µM in [4]; 1.22 µM in [5]; 0.182 µM in assay [6]. The GI50 in [7] was 0.961 µM; in [8], 1.67 µM; in assay [9], 6.61 µM; in assay [10], 1.5 µM. In addition, the TGI in assay [1] is over 50 µM; in assay [2] it was over 50 µM; in [3] it was over 50 µM; in assay [4] it was 19 µM; in assay [5] it was over 14.8 µM; in assay [6] it was 2.8 µM. The TGI in assay [7] is over 50 µM; in assay [8] it was 12 µM; in assay [9] it was over 50 µM; in [10], over 37 µM.

`O=C(/C=C(\O)C(=O)O)/C=C(\O)c1ccc(Cl)cc1`: the TGI in assay [1], in assay [2], in [3], in [4], in assay [5] and in assay [6] was over 100 µM in each case. Further, the TGI in [7], in assay [8], in assay [9] and in assay [10] was over 100 µM throughout.

Turning to `C=CC[n+]1c(/C=C2\Sc3ccccc3N2C)sc(-c2ccccc2)c1-c1ccccc1`, the GI50 in assay [1] is 0.431 µM; in [2] it was 0.258 µM; in assay [3], 0.155 µM; in assay [4], 0.401 µM; in [5], 0.411 µM; in assay [6], 0.22 µM. In addition, the GI50 in [8] was 0.249 µM; in [9] it was 0.307 µM; in assay [10], 0.331 µM. Besides, the TGI in [1] turned out to be 4.29 µM; in assay [2], 0.977 µM; in assay [3], 0.571 µM; in assay [4] it was 15.7 µM; in assay [5], 12.5 µM; in assay [6], 0.76 µM. The TGI amounted to 0.658 µM in [8], 3.35 µM in assay [9] and 1.95 µM in assay [10].

As to `CCCCc1c2c(nc3c1CCc1cc(C=O)c(N)nc1-3)/C(=C/c1ccccc1)CCC2`, the TGI is over 100 µM in [1]; over 100 µM in assay [2]; over 100 µM in assay [3]; 45.1 µM in [4]; over 100 µM in assay [5]; over 100 µM in assay [6]. Also, the TGI is over 100 µM in assay [7], 32.3 µM in [8], over 100 µM in [9] and over 100 µM in assay [10].

As for `Cc1cccc2c1NC(c1c(C)[nH]c3ccccc13)C2` (centres undefined), the TGI is over 100 µM in [1]; over 100 µM in [2]; 17.2 µM in assay [3]; over 100 µM in assay [4]; over 100 µM in assay [5]; over 100 µM in assay [6]. The TGI in assay [7], in assay [8], in assay [9] and in assay [10] was over 100 µM in each case.

As to `Cn1c(=O)c(C2c3ccccc3Oc3c2c(=O)n(C)c2ccccc32)c(O)c2ccccc21` (centres undefined), the TGI is over 100 µM in [1]; over 100 µM in [2]; over 100 µM in [3]; over 100 µM in assay [4]; over 100 µM in [5]; 54.6 µM in assay [6]. Moreover, the TGI is over 100 µM in assay [7], over 100 µM in assay [8], 83.8 µM in [9] and over 100 µM in [10].

In the case of `CC(=O)c1c[nH]c2ccc(-c3ccnc(Nc4ccc(NC(=O)c5cccc(F)c5)c(CN5CCOCC5)c4)n3)cc12`, the GI50 is 0.262 µM in [1]; 0.148 µM in assay [2]; 0.154 µM in [3]; 0.292 µM in assay [4]; 0.0809 µM in [5]; 0.234 µM in assay [6]. The GI50 is 0.127 µM in assay [7], 0.0637 µM in [8], 0.268 µM in assay [9] and 0.0892 µM in assay [10]. Further, the TGI in assay [1] was over 100 µM; in assay [2] it was 1.76 µM; in assay [3], 1.17 µM; in assay [4], 16.6 µM; in assay [5], 0.457 µM; in assay [6], 1.61 µM. In addition, the TGI came to 0.43 µM in assay [7], 0.317 µM in [8], 1.95 µM in assay [9] and 1.35 µM in assay [10].

As to `NS(=O)(=O)OC[C@H]1O[C@@H](n2cnc3c(N[C@H]4CCc5ccccc54)ncnc32)[C@H](O)[C@@H]1O`, the GI50 in assay [1] is 0.22 µM; in assay [2], 0.0285 µM; in assay [3], 0.475 µM; in assay [4], 0.157 µM; in [5] it was 0.0351 µM; in assay [6], 0.0271 µM. For the same compound, the GI50 in assay [7] is 0.0451 µM; in assay [8] it was 0.043 µM; in assay [9], 0.608 µM; in assay [10], 0.525 µM. The TGI in assay [1] came out at 1.99 µM; in [2], 0.0863 µM; in assay [3] it was 0.799 µM; in [4], 0.331 µM; in assay [5], 0.117 µM; in assay [6] it was 0.192 µM. For the same compound, the TGI in assay [7] is 0.374 µM; in assay [8], 0.22 µM; in [9] it was 3.24 µM; in assay [10] it was 2.58 µM.

Turning to `CN1CCN(c2nc(NCCNc3ccnc4cc(Cl)ccc34)c3ccccc3n2)CC1`, the GI50 in assay [1] was 1.63 µM; in [2] it was 10.6 µM; in assay [3], 1.13 µM; in [4], 3.11 µM; in assay [5] it was 1.77 µM; in [6], 1.64 µM. Also, the GI50 is 1.82 µM in assay [7], 0.974 µM in assay [8], 2.72 µM in assay [9] and 2.43 µM in assay [10]. Moreover, the TGI is 6.36 µM in assay [1]; 28.7 µM in assay [2]; 2.6 µM in assay [3]; 10.4 µM in assay [4]; 3.34 µM in [5]; 3.8 µM in [6]. Besides, the TGI worked out at 3.39 µM in assay [7], 2.33 µM in assay [8], 7.93 µM in assay [9] and 12.1 µM in [10].

Consider `O=C1C=Cc2cc3ccccc3c3cccc1c23`, for which the GI50 in [1] is 5.03 µM; in assay [2] it was 2.61 µM; in assay [3], 1.11 µM; in assay [4], 0.413 µM; in assay [6], 8.6 µM; in [7], 1.81 µM. The GI50 was 8.41 µM in [8], 9.55 µM in assay [9] and 12.1 µM in [10]. The TGI was over 100 µM in [1]; 10 µM in assay [2]; 6.29 µM in [3]; 3.18 µM in assay [4]; over 100 µM in assay [6]; 6.43 µM in assay [7]. Further, the TGI in [8] is over 100 µM; in [9] it was 42.3 µM; in [10], 35.6 µM.

`COc1ccc(-c2cc(-c3ccco3)c(C#N)c(=O)n2C2OC(OC(=O)c3ccccc3)C(OC(=O)c3ccccc3)C2OC(=O)c2ccccc2)cc1` (centres undefined): the TGI in assay [1] was over 100 µM; in assay [2], over 100 µM; in [3], 54.5 µM; in assay [4], over 100 µM; in assay [5] it was over 100 µM; in assay [6], over 100 µM. The TGI in assay [8] is over 100 µM; in assay [9] it was 54.7 µM; in [10] it was over 100 µM.

Turning to `COc1cc2c(cc1OC)[C@@H]1[C@H](C2=O)c2ccc([N+](=O)[O-])cc2C(=O)N1CCCBr`, the GI50 is under 0.018 µM in assay [1]; 0.281 µM in [2]; 3.15 µM in assay [3]; 2.66 µM in assay [4]; 0.387 µM in assay [5]; 0.574 µM in [6]. The values for the GI50 in [7], in assay [9] and in [10] were under 0.046 µM, 1.28 µM and 0.406 µM, respectively. Also, the TGI is 1.24 µM in [2]; over 100 µM in assay [3]; over 100 µM in [4]; 2.29 µM in assay [5]; 29.4 µM in assay [6]; 1.16 µM in assay [7]. For the same compound, the results for the TGI in assay [9] and in assay [10] were 41.1 µM and 4.6 µM, respectively.

Consider `NC(N)=Nc1nc2cc(N)ccc2o1`, for which the TGI in [1], in assay [2], in assay [3], in assay [4], in assay [5] and in [6] was over 100 µM throughout. Besides, the TGI in assay [7], in assay [9] and in assay [10] was over 100 µM in each case.
